The test system of data set [1] is Colon subpanel tumor cell lines. The data set can be described thus: In vitro anticancer screening, five concentration levels, colon subpanel. The format is cell-based, human. As to the method: (§1) Anticancer evaluation of the newly synthesized compound was performed by a screening in vitro with 60 human cell lines for primary anticancer screening, representing leukemia, melanoma and cancers of the lung, colon, brain, ovary, breast, prostate and kidney. The screening was a two-stage process, beginning with the evaluation of all compounds against the 60 cell lines at a single-dose of 10 μM. […] Therefore this compound passed on to further evaluation at five concentration levels ranging from 0.01 μM to 100 μM.

Data set [2] deals with Melanoma subpanel tumor cell lines. The data set is described as follows: In vitro anticancer screening, five concentration levels, melanoma subpanel. The format is cell-based, human. The method, then: as §1
Data set [3] has as its system Ovarian subpanel tumor cell lines. The data set is described as follows: In vitro anticancer screening, five concentration levels, ovarian subpanel. It is filed as cell-based, human. The method, then:
as §1

The test system of data set [4] is Lung subpanel tumor cell lines. The data set can be described thus: In vitro anticancer screening, five concentration levels, lung subpanel. It is filed as cell-based, human. The method, then:
as §1

Data set [5] concerns Leukemia subpanel tumor cell lines. The data set can be described thus: In vitro anticancer screening, five concentration levels, leukemia subpanel. It is filed as cell-based, human. The method, then: as §1
The subject of data set [6] is CNS subpanel tumor cell lines. The data set can be described thus: In vitro anticancer screening, five concentration levels, CNS subpanel. It is filed as cell-based, human. As to the method: as §1
Data set [7] deals with Renal subpanel tumor cell lines. The data set is described as follows: In vitro anticancer screening, five concentration levels, renal subpanel. The format is cell-based, human. The method, then: as §1
The subject of data set [8] is Breast subpanel tumor cell lines. The data set can be described thus: In vitro anticancer screening, five concentration levels, breast subpanel. The format is cell-based, human. The method, then: as §1
In data set [9] the test system is DENA-induced liver cancer in rats. The data set is described as follows: Liver function in DENA-induced liver cancer in rats. Conditions: for ALP / ALT / AST / Bili (total bilirubin): serum, mean ± SE. It is filed as in vivo, rat. The method, then: (§2) Adult male Sprague-Dawley rats (180±20 g, body weight), were purchased from the animal house of the National Research Centre, Egypt. They were maintained for 1 week under environmentally controlled conditions (constant temperature, 25-27° C., with 12-hour light/dark cycles) for 1 week prior to starting the experiments. The […] were housed with 10 animals per cage, and were provided with tap water and commercial diets.
Diethylnitrosamine (DENA) and carbon tetrachloride (CCl4) were purchased from Sigma-Aldrich Chemical Corp., (St. Louis, Mo., USA). The DENA was dissolved in normal saline and injected as a single dose (200 mg/kg, intraperitoneally, i.p.) to initiate hepatic carcinogenesis. The CCl4 was administered as a single dose (2 ml/kg) by gavage as a 1:1 dilution in corn oil to stimulate liver cell proliferation and regeneration. The aspartate transaminase (AST), alanine transaminase (ALT), alkaline phosphatase (ALP), and total bilirubin (Bili) kits were obtained from BioMérieux (France).
Adult male Sprague-Dawley rats were divided into groups of eight animals each. Group 1 rats (untreated control) were fed a standard diet and given water throughout the experiment. Group 2 rats (treated with DENA) were injected with a single dose of DENA (200 mg/kg, i.p.), and 2 weeks later received a single dose of CCl4 (2 ml/kg) by gavage as 1:1 dilution in corn oil. Group 3 rats (treated with DENA and target compound) consisted of rats that were treated as the rats in Group 2, but also were treated with target compound administered IV at a dose that was 1/10 the LD50, for 10 consecutive days.
At the end of the treatment protocol on day 30 after the last injection, the animals were anesthetized with ether, and blood samples were drawn from the orbital venous plexus. The serum was separated by centrifugation for 5 minutes at 1500 g, and stored at −20° C. until analyzed. This serum was used to determine the liver function by assaying the ALT, AST, and ALP activities and total bilirubin spectrophotometrically according to the manufacturer's instructions using reagent kits obtained from […]. Liver function was measured, comparing results for control rats with results in DENA-treated and in target compound-treated rats. The results were reported as mean±standard error of the mean (SE). Statistical significance was analyzed using a one-way analysis of variance (ANOVA) followed by the Student's t-test, while the differences were considered to be significant at p<0.05.

Another data set has as its system 60 human cell lines. The data set can be described thus: In vitro anticancer screening, full panel. It is filed as cell-based. Conditions: for GI50: Homo sapiens, read-out: GI50 MG-MID (full panel mean-graph midpoint). As to the method:
as §1

Data set [10] concerns DENA-induced liver cancer in rats. The data set can be described thus: Histopathological examination of rat liver sections. The conditions noted are these: H&E staining. It is filed as in vivo. From the text: For the histopathological examination, the animals were euthanized by decapitation and their livers were rapidly excised, weighed, and washed with saline. Portions of the livers were fixed in 10% formalin in saline, embedded in paraffin wax, serially sectioned, and stained. A standard method of hematoxylin and eosin (H&E) staining was also used.

Data set [11] relates to Prostate subpanel tumor cell lines. The data set can be described thus: In vitro anticancer screening, five concentration levels, prostate subpanel. The format is cell-based, human. The method, then: as §1
In another data set the test system is Sprague-Dawley rats. The data set can be described thus: In vivo acute toxicity (LD50). The arrangement: species or system rat. As to the method:
as §2
Acute toxicity of the target compound was determined in vivo according to previously reported methods in the literature. Briefly, animals were divided into groups of 10 rats each, and administered single intravenous (IV) doses, graded ranging from 0 to 1200 μg/kg, of the synthesized compound. Control animals received vehicle alone (dimethyl sulfoxide, DMSO).
The mortality of the animals was monitored for up to 1 month posttreatment. […] Acute toxicity was considered by the in vivo assay.

Setting [12] is: DENA/CCl4 rats treated IV at 1/10 LD50 for 10 days, day 30 after last injection.
[13] abbreviates: rats given DENA 200 mg/kg i.p. then CCl4, no target compound.

Like-named read-outs stand apart in the source and are kept apart here. Marks after values point to notes of the source that are not given here.

In the case of `COc1ccc(-c2nn(-c3cccc(Cl)c3)cc2/C=C2\C(=N)N(c3ccccc3)N=C2N)cc1` [Compound 2, (4Z)-4-((1-(3-Chlorophenyl)-3-(4-methoxyphenyl)-1H-pyrazol-4-yl)methylene)-4,5-dihydro-5-imino-1-phenyl-1H-pyrazol-3-amine], in data set [1], the “Selectivity ratio, Colon” value came to 2.86. Besides, the GI50 in data set [1] (Homo sapiens, read-out: Median growth inhibitory concentration GI50, Colon) is 1250 nM; in data set [2] (Homo sapiens, read-out: Median growth inhibitory concentration GI50, Melanoma), 2830 nM; in data set [3] (Homo sapiens, read-out: Median growth inhibitory concentration GI50, Ovarian) it was 6110 nM; in data set [4] (Homo sapiens, read-out: Median growth inhibitory concentration GI50, Lung), 7390 nM; in [5] (Homo sapiens, read-out: Median growth inhibitory concentration GI50, Leukemia) it was 610 nM; in data set [6] (Homo sapiens, read-out: Median growth inhibitory concentration GI50, CNS) it was 5700 nM. Further, the GI50 in [7] (Homo sapiens, read-out: Median growth inhibitory concentration GI50, Renal) amounted to 5550 nM; in [8] (Homo sapiens, read-out: Median growth inhibitory concentration GI50, Breast), 2130 nM; in the data set on 60 human cell lines (60 cell), 3590 nM; in data set [11] (Homo sapiens, read-out: Median growth inhibitory concentration GI50, Prostate) it was 690 nM. Also, in data set [2], the “Selectivity ratio, Melanoma” value came to 1.27. Further, the “Selectivity ratio, Ovarian” value in data set [3] was 0.59. In addition, the “Selectivity ratio, Lung” value in data set [4] is reported as 0.49. Further, the “Selectivity ratio, Leukemia” value in [5] is on record as 5.86. For the same compound, the “Selectivity ratio, CNS” value in [6] came to 0.63. The “Selectivity ratio, Renal” value in data set [7] is on record as 0.65. For the same compound, the “Selectivity ratio, Breast” value in data set [8] came to 1.68. Further, the “AST, ALT and ALP activities and total bilirubin level compared to DENA-treated rats (in words)” value in [9] (dose of 1/10 of the LD50) was “substantial normalization”. In addition, the ALP in data set [9] (setting [12]) was 124.00 ± 12.00^b U/L. Besides, in [9] (setting [12]), the ALT is listed as 49.00 ± 4.6^b U/L. In addition, the AST in data set [9] (setting [12]) is listed as 70.00 ± 7.2^b U/L. In data set [9] (setting [12]), the “Bili (total bilirubin)” value was 1.63 ± 0.16^b mg/dl. The “Growth inhibition, one dose mean graph” value in the data set on 60 human cell lines (single-dose of 10 μM, 60 cell lines) is given as “significant growth inhibition”. In addition, the “Liver histology (H&E) of DENA-rats treated with target compound” value is “improvement in the hepatic pattern associated with normal hepatic architecture” in data set [10] (listed as target) and “normal hepatic architecture” in [10] (listed as target compound). The “Selectivity ratio, Prostate” value in [11] amounted to 5.19. Also, the “Median lethal dose (LD50)” value with Sprague-Dawley rats (single IV dose, mortality monitored up to 1 month) worked out at 195 μg/kg body weight. Also, the “Acute toxicity (in words)” value in the data set on Sprague-Dawley rats (single IV doses 0 to 1200 μg/kg) was “no marked acute toxicity”.

Consider `CCN(CC)N=O` [DENA, Diethylnitrosamine, reference compound], for which, in [9] (setting [13]), the ALP is listed as 215.00 ± 15.7^a U/L, the ALT is 95.00 ± 7.0^a U/L, the AST is 110.00 ± 7.8^a U/L and the “Bili (total bilirubin)” value is 2.90 ± 0.20^a mg/dl.

As for `CNC(=O)c1cc(Oc2ccc(NC(=O)Nc3ccc(Cl)c(C(F)(F)F)c3)cc2)ccn1` [Sorafenib, sorafenib, reference compound], in the data set on 60 human cell lines (full panel, 60 cell lines), the GI50 was 1900 nM.

Source of the values: US10039749B1, “Substituted pyrazole derivatives” (KING SAUD UNIVERSITY, priority 2018, dated 2018).
